Measured values reported in PubChem BioAssay (NCI).
Values joined by “and” are separate entries in the source; they are usually repeats but may differ in a detail not shown here. Equal entries are not always repeated.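 Each compound was tested at five concentrations against cells in 96-well plates for 48 hours. At the GI50, growth is halved. TGI: concentration producing complete growth inhibition.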

Legend:
Assay in all cases: NCI anticancer screen, dose series, 48 h
MDA-MB-435 = test system: MDA-MB-435
OVCAR-8 ovarian = test system: OVCAR-8 ovarian
SW-620 colon = test system: SW-620 colon
SN12C renal = test system: SN12C renal
ACHN renal = test system: ACHN renal
MCF7 breast = test system: MCF7 breast
SNB-19 CNS = test system: SNB-19 CNS
SR leukemia = test system: SR leukemia
NCI-H23 lung = test system: NCI-H23 lung
T-47D breast = test system: T-47D breast

SMILES | GI50 (MDA-MB-435) | TGI (MDA-MB-435) | GI50 (OVCAR-8 ovarian) | TGI (OVCAR-8 ovarian) | GI50 (SW-620 colon) | TGI (SW-620 colon) [µM] | GI50 (SN12C renal) | TGI (SN12C renal) | GI50 (ACHN renal) | TGI (ACHN renal) | GI50 (MCF7 breast) | TGI (MCF7 breast) | GI50 (SNB-19 CNS) | TGI (SNB-19 CNS) | GI50 (SR leukemia) | TGI (SR leukemia) | GI50 (NCI-H23 lung) | TGI (NCI-H23 lung) | GI50 (T-47D breast) | TGI (T-47D breast)
CCC(=O)Nc1nnc(Cc2ccc(OC)c(OC)c2)s1 | > 100 µM | > 100 µM | > 100 µM | > 100 µM | > 100 µM | > 100 | > 100 µM | > 100 µM | > 100 µM | > 100 µM | > 100 µM | > 100 µM | > 100 µM | > 100 µM | > 100 µM | > 100 µM | > 100 µM | > 100 µM | > 100 µM | > 100 µM
Cn1c(I)c(C#C[Si](C)(C)C)c(=O)[nH]c1=O | 3.1 µM | 11.5 µM | 12.1 µM | 25.6 µM | 1.71 µM | 3.23 | 6.66 µM | 20.5 µM | 1.61 µM | 3.01 µM | 6.2 µM | 21.5 µM | 16 µM | 30.1 µM | 3.37 µM | 5.82 µM | 4.25 µM | 17.3 µM | 2.54 µM | 8 µM
COc1ccc2nc3ccccc3c(NCCCCN(CCCl)CCCl)c2c1 | – | 21.4 µM | – | 0.625 µM | – | 2.74 | – | 3.13 µM | – | 1.15 µM | – | 5.23 µM | – | 7.9 µM | – | 2.79 µM | – | 2.09 µM | – | 13.8 µM
Oc1[nH]c2ccccc2c1C=Nc1ccc(-n2cncn2)cc1 | > 25 µM | > 25 µM | 13.9 µM | > 25 µM | > 25 µM | > 25 | 14.6 µM | > 25 µM | 18.3 µM | > 25 µM | > 25 µM | > 25 µM | > 25 µM | > 25 µM | 19 µM | > 25 µM | > 21.9 µM | > 25 µM | 8.79 µM | > 21.9 µM
C(=N\Nc1ccc2ccccc2n1)/c1ccccn1 | 1.01 µM | > 52.7 µM | 0.463 µM | > 100 µM | 0.644 µM | > 43.3 | 0.483 µM | > 100 µM | 0.367 µM | > 43.9 µM | 0.44 µM | > 100 µM | 0.921 µM | > 100 µM | 0.328 µM | – | 0.857 µM | > 100 µM | 0.574 µM | 38.5 µM
Cc1cc(N(CCNc2ccnc3cc(Cl)ccc23)Cc2ccc3c(c2)OCO3)nc(N2CCCC2)n1 | 1.62 µM | 3.18 µM | 1.91 µM | 5.01 µM | 1.19 µM | 2.94 | 1.5 µM | 3.87 µM | 1.91 µM | 4.09 µM | 1.49 µM | 4.19 µM | 2.53 µM | 11.3 µM | 0.25 µM | 0.635 µM | 2 µM | 6.25 µM | 1.93 µM | 5.44 µM
CCC(c1ccccc1)c1cc(C(C)(C)C)cc(C(C)(C)C)c1O (stereo not drawn) | – | 32 µM | – | 31.1 µM | – | 30.5 | – | 31.3 µM | – | 32.6 µM | – | 35.7 µM | – | 32.7 µM | – | > 100 µM | – | 30.9 µM | – | 29.6 µM
CCOC(=O)/C=C1/SC(=Nc2ccc(C#N)cc2)N(Cc2ccco2)C1=O | 3.44 µM | 15.8 µM | 2.83 µM | 7.94 µM | 2.06 µM | 4.97 | 2.45 µM | 6.76 µM | 1.78 µM | 3.33 µM | 2.7 µM | 12.7 µM | 3.83 µM | 13.8 µM | 2.71 µM | 8.41 µM | 10.6 µM | 34.5 µM | 2.57 µM | 8.24 µM
C[C@]12CCC(=O)C[C@@H]1CC[C@@H]1[C@@H]2CC[C@]2(C)[C@@H](OC(=O)N(CCCl)N=O)CC[C@@H]12 | 1.07 µM | 18.1 µM | 1.36 µM | 24 µM | 1.11 µM | 19 | 0.734 µM | 17.9 µM | 0.321 µM | 11.7 µM | 4.71 µM | > 45.6 µM | 0.411 µM | 17.8 µM | – | > 37.7 µM | 1.32 µM | 25.4 µM | 2.91 µM | 30 µM
CC1=C(C(=O)Nc2ccc(Cl)c(Cl)c2)C(c2cccc(Cl)c2)NC(=S)N1 (stereo not drawn) | 14 µM | 45.1 µM | 12.4 µM | 31.7 µM | 15.6 µM | 36.1 | 8.4 µM | 18.3 µM | 12.4 µM | 37.1 µM | > 50 µM | > 50 µM | 10.5 µM | 24.9 µM | 17.1 µM | > 50 µM | 9.79 µM | 20.9 µM | 31.5 µM | > 50 µM
O=C1/C(=C/c2ccc([N+](=O)[O-])o2)Oc2ccc(Cl)cc21 | 1.99 µM | 4.5 µM | 2.06 µM | > 22.1 µM | 0.541 µM | 1.99 | 2.2 µM | 5.67 µM | 1.54 µM | 2.98 µM | 1.42 µM | 3.92 µM | 3.94 µM | 16.7 µM | 0.267 µM | 1.26 µM | 2.11 µM | 5.07 µM | 1.67 µM | 5.02 µM
CNC(=O)c1cc(Oc2ccc(NC(=O)Nc3cc(C(C)(C)C)nn3-c3ccc4ncccc4c3)c(F)c2)ccn1 | 0.587 µM and 0.387 µM | 3.87 µM and 1.75 µM | 2.24 µM and 1.99 µM | 7.82 µM and 6.84 µM | 3.51 µM and 3.16 µM | > 29.6 | 0.646 µM and 0.484 µM | 5.74 µM and 4.68 µM | 0.915 µM and 0.475 µM | 7.47 µM and > 23.6 µM | 1.15 µM and 1.05 µM | 9.13 µM and > 53 µM | 3.1 µM and 3.09 µM | 8.87 µM and 7.98 µM | 0.633 µM and 0.497 µM | 3.91 µM and 3.85 µM | 1.65 µM and 1.26 µM | 5.91 µM and 4.78 µM | 0.907 µM and 1.79 µM | 7.17 µM and > 29.3 µM
COc1cc(C(=O)n2nc(N)c3c(C)cc(C)nc32)cc(OC)c1OC | 0.325 µM | 6.01 µM | > 100 µM | > 100 µM | 2.48 µM | > 100 | > 100 µM | > 100 µM | > 100 µM | > 100 µM | 10.2 µM | > 100 µM | > 100 µM | > 100 µM | 0.784 µM | > 100 µM | > 100 µM | > 100 µM | > 65.4 µM | > 100 µM
